Data set [1] concerns cells. Description: apoptosis induction / cell cycle measurements in cells. Type of data set: cell-based.
For data set [2], the target named is MDR-1 gene product P-glycoprotein (Homo sapiens, UniProt P08183). Description: P-glycoprotein-mediated substrate efflux. In kind it is cell-based.
Chain of MDR-1 gene product P-glycoprotein (P08183 whole entry): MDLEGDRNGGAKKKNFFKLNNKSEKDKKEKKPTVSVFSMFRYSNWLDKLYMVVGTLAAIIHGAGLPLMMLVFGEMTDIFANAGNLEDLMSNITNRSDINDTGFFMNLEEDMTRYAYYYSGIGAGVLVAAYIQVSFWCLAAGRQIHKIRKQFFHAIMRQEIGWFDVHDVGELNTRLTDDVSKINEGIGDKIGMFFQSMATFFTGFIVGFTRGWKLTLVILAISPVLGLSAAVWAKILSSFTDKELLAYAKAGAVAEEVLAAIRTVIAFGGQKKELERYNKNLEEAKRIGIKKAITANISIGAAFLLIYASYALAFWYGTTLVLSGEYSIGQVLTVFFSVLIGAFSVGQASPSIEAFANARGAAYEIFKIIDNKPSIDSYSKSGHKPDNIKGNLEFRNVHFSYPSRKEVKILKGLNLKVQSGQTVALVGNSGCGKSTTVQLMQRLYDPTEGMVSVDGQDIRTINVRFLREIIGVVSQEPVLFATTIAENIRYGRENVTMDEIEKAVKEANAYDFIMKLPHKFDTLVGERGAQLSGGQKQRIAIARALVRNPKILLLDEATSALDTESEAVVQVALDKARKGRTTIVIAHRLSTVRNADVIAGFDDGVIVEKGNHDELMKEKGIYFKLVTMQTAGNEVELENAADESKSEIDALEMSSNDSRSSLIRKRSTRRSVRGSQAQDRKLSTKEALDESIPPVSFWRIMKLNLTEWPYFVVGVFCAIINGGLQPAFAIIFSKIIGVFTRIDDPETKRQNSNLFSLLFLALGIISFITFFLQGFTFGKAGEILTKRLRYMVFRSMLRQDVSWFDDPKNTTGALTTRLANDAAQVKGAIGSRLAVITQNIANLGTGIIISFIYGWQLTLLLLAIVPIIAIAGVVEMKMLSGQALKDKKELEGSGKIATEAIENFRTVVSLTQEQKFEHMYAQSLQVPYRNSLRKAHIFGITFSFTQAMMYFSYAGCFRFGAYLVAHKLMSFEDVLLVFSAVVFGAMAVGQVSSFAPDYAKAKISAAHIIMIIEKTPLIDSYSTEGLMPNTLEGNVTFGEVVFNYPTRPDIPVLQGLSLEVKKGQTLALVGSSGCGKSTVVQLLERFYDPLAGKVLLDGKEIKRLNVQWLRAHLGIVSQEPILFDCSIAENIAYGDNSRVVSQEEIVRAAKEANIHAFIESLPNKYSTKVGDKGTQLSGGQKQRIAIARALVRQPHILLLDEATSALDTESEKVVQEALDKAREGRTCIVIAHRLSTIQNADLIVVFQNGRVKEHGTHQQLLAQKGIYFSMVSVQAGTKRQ

As to `COc1cc([C@@H]2c3cc4c(cc3[C@@H](O[C@@H]3O[C@@H]5CO[C@@H](C)O[C@H]5[C@H](O)[C@H]3O)[C@H]3COC(=O)[C@H]23)OCO4)cc(OC)c1O` [etoposide], the “apoptosis is complete after” value in data set [1] is recorded as 48 h. In data set [2], the “effect on P-glycoprotein” value is “ineffective” and the “retention in cells / efflux” value was “pumped out of the cells”.

For the origin of these results see patent publication US10183035B2, “Etoposide and prodrugs thereof for use in targeting cancer stem cells” (CELLACT PHARMA GMBH, priority 2013, dated 2019).
